Target: T1, human complement factor D (Homo sapiens, UniProt P00746)
T1 construct: purchased R&D Systems 1824-SE
Assay: In vitro enzyme inhibition of human complement factor D (Z-Lys-SBzl/DTNB, A405)
Assay type: biochemical
Conditions: not given
Description: The ability of the compounds disclosed herein to inhibit human complement factor D inhibitory activity was quantified according to the 12-step protocol provided below. • 1. Prepare assay buffer: 50 mM Tris/HCl, pH 7.5, 1 M NaCl. • 2. […] Then dilute the serial concentrations of Nafamostat Mesilate 20-fold in assay buffer. • 3. […] 0.5% DMSO was in each well finally. • 4. […] Add 10 μl diluted test compounds duplicated into the 96-well plate. […] 0.5% DMSO was in each well finally. • 6. Dilute 20 mM substrate Z-Lys-SBzl (Bachem, Cat# M-1300) to 200 μM in assay buffer with 200 μM DTNB (Sigma, Catalog# D8130). • 7. […] Add 40 μl diluted Complement Factor D in the 96-well plate. • 8. Positive control well contains Complement Factor D without test compound. Negative control well contains neither Complement Factor D nor test compound. Using assay buffer, bring the total volume of all controls to 50 al. • 9. Pre-incubate the plate for 5 min at room temperature. • 10. Add 50 μl of diluted substrate/DTNB mixture into each well. […] For kinetic reading: Immediately start measuring absorbance (A405 nm) continuously and record data every 30 sec for 60 min. • 12. Data analysis • Inhibition activity of compound was evaluated by IC50. IC50 was calculated according the dose-response curve of compound fitted using GraphPadPrism with “log(inhibitor)-response (variable slope)” equation. • % inhibition was calculated by using following equation:
[formula] • Mean(NC): The average value of the negative control wells' A405 nm values. • Mean(PC): The average value of the positive control wells' A405 nm values.

T1 sequence (P00746 26-253): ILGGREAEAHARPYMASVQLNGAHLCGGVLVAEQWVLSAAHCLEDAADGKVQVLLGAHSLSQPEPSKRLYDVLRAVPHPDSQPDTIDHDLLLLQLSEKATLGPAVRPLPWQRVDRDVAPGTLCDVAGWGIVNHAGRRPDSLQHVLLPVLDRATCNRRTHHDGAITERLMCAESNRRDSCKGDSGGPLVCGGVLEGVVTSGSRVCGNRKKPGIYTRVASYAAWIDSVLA

Row | SMILES | IC50
1 | NC(=O)c1nn(CC(=O)N(CC(=O)NCc2cccc(Cl)c2F)C2CC2)c2cc(Cl)ccc12 [Example 85, 6-chloro-1-(2-((2-((3-chloro-2-fluorobenzyl)amino)-2-oxoethyl)(cyclopropyl)amino)-2-oxoethyl)-1H-indazole-3-carboxamide] | 0.1 to 1 µM
2 | CC(C)C(C)N(CC(=O)NCc1cccc(Cl)c1F)C(=O)Cn1nc(C(N)=O)c2ccccc21 (centres unmarked) [Example 54, 1-(2-((2-((3-chloro-2-fluorobenzyl)amino)-2-oxoethyl)(3-methylbutan-2-yl)amino)-2-oxoethyl)-1H-indazole-3-carboxamide] | 0.1 to 1 µM

Same assay, conditions: biochemical assay, substrate Z-Lys-SBzl; read-out: CFD IC50

Row | SMILES | IC50
3 | NC(=O)c1nn(CC(=O)N(CC(=O)NCc2ccc(F)c(Cl)c2)C2CC2)c2ccccc12 [Example 108, 1-(2-((2-((3-chloro-4-fluorobenzyl)amino)-2-oxoethyl)(cyclopropyl)amino)-2-oxoethyl)-1H-indazole-3-carboxamide] | 1 to 10 µM
4 | NC(=O)c1nc(CC(=O)N(CC(=O)NCc2cccc(Cl)c2F)C2CC2)n2ccccc12 [Example 42, 3-(2-((2-((3-chloro-2-fluorobenzyl)amino)-2-oxoethyl)(cyclopropyl)amino)-2-oxoethyl)imidazo[1,5-a]pyridine-1-carboxamide] | 0.1 to 1 µM
5 | NC(=O)c1nn(CC(=O)N(CC(=O)NCc2cc(Cl)c3[nH]ncc3c2)C2CC2)c2ccccc12 [Example 114, 1-(2-((2-(((7-chloro-1H-indazol-5-yl)methyl)amino)-2-oxoethyl)(cyclopropyl)amino)-2-oxoethyl)-1H-indazole-3-carboxamide] | 1 to 10 µM
6 | CN(CC(=O)Nc1cccc(Cl)n1)C(=O)Cn1nc(C(N)=O)c2ccccc21 [Example 14, 1-(2-((2-((6-chloropyridin-2-yl)amino)-2-oxoethyl)(methyl)amino)-2-oxoethyl)-1H-indazole-3-carboxamide] | 1 to 10 µM
7 | NC(=O)n1cc(CC(=O)N(CC(=O)NCc2cccc(Cl)c2F)C2CC2)c2ccccc21 [Example 41, 3-(2-((2-((3-chloro-2-fluorobenzyl)amino)-2-oxoethyl)(cyclopropyl)amino)-2-oxoethyl)-1H-indole-1-carboxamide] | 0.1 to 1 µM
8 | NC(=O)c1nn(CC(=O)N(CC(=O)NCc2cccc(Cl)c2Cl)C2CC2)c2ccccc12 [Example 106, 1-(2-(cyclopropyl(2-((2,3-dichlorobenzyl)amino)-2-oxoethyl)amino)-2-oxoethyl)-1H-indazole-3-carboxamide] | 0.1 to 1 µM
9 | NC(=O)c1nn(CC(=O)N(CC(=O)NCc2cncc(Cl)c2)C2CC2)c2ccccc12 [Example 130, 1-(2-((2-(((5-chloropyridin-3-yl)methyl)amino)-2-oxoethyl)(cyclopropyl)amino)-2-oxoethyl)-1H-indazole-3-carboxamide] | 1 to 10 µM
10 | NC(=O)c1nn(CC(=O)N(CC(=O)NCc2cccc(Cl)c2C2CC2)C2CC2)c2ccccc12 [Example 131, 1-(2-((2-((3-chloro-2-cyclopropylbenzyl)amino)-2-oxoethyl)(cyclopropyl)amino)-2-oxoethyl)-1H-indazole-3-carboxamide] | > 10 µM
11 | NC(=O)c1nn(CC(=O)N(CC(=O)NCc2cccc(Cl)c2F)Cc2ccsc2)c2ccccc12 [Example 27, 1-(2-((2-((3-chloro-2-fluorobenzyl)amino)-2-oxoethyl)(thiophen-3-ylmethyl)amino)-2-oxoethyl)-1H-indazole-3-carboxamide] | 1 to 10 µM
12 | CC1(C)C[C@H](O)C[C@@H](NC(=O)CN(C(=O)Cn2nc(C(N)=O)c3ccccc32)C2CC2)C1 [Example 10, 1-(2-(cyclopropyl(2-(((1S,5S)-5-hydroxy-3,3-dimethylcyclohexyl)amino)-2-oxoethyl)amino)-2-oxoethyl)-1H-indazole-3-carboxamide] | 1 to 10 µM
13 | NC(=O)c1nn(CC(=O)N(CC(=O)NCc2cccc(Cl)c2F)C2CCNC2)c2ccccc12 (centres unmarked) [Example 37, 1-(2-((2-((3-chloro-2-fluorobenzyl)amino)-2-oxoethyl)(pyrrolidin-3-yl)amino)-2-oxoethyl)-1H-indazole-3-carboxamide] | 1 to 10 µM
14 | COc1cccc(CNC(=O)CN(C(=O)Cn2nc(C(N)=O)c3ccccc32)C2CC2)c1F [Example 122, 1-(2-(cyclopropyl(2-((2-fluoro-3-methoxybenzyl)amino)-2-oxoethyl)amino)-2-oxoethyl)-1H-indazole-3-carboxamide] | 1 to 10 µM
15 | NC(=O)c1nn(CC(=O)N(CC(=O)NCc2cccc(F)c2F)C2CC2)c2ccccc12 [Example 132, 1-(2-(cyclopropyl(2-((2,3-difluorobenzyl)amino)-2-oxoethyl)amino)-2-oxoethyl)-1H-indazole-3-carboxamide] | 0.1 to 1 µM
16 | NC(=O)c1nc(NC(=O)N(CC(=O)NCc2cccc(Cl)c2F)C2CC2)n2ccccc12 [Example 140, 3-(3-(2-((3-chloro-2-fluorobenzyl)amino)-2-oxoethyl)-3-cyclopropylureido)imidazo[1,5-a]pyridine-1-carboxamide] | 0.1 to 1 µM
17 | NC(=O)c1nn(CC(=O)N(CC(=O)NCc2ccc(N)cc2F)C2CC2)c2ccccc12 [Example 121, 1-(2-((2-((4-amino-2-fluorobenzyl)amino)-2-oxoethyl)(cyclopropyl)amino)-2-oxoethyl)-1H-indazole-3-carboxamide] | 1 to 10 µM
18 | O=C(CN(C(=O)Cn1nc(-c2ncc[nH]2)c2ccccc21)C1CC1)NCc1cccc(Cl)c1F [Example 98, 2-(3-(1H-imidazol-2-yl)-1H-indazol-1-yl)-N-(2-((3-chloro-2-fluorobenzyl)amino)-2-oxoethyl)-N-cyclopropylacetamide] | 1 to 10 µM
19 | NC(=O)c1nn(CC(=O)N(CC(=O)NCc2cccc(Cl)c2F)C2CC2)c2c(Cl)cccc12 [Example 81, 7-chloro-1-(2-((2-((3-chloro-2-fluorobenzyl)amino)-2-oxoethyl)(cyclopropyl)amino)-2-oxoethyl)-1H-indazole-3-carboxamide] | < 0.1 µM
20 | NC(=O)c1nn(CC(=O)N(CC(=O)NCc2cccc(Cl)c2F)C2CCOCC2)c2ccccc12 [Example 29, 1-(2-((2-((3-chloro-2-fluorobenzyl)amino)-2-oxoethyl)(tetrahydro-2H-pyran-4-yl)amino)-2-oxoethyl)-1H-indazole-3-carboxamide] | 1 to 10 µM
21 | NC(=O)c1nn(CC(=O)N(CCO)CC(=O)Nc2cccc(Cl)n2)c2ccccc12 [Example 13, 1-(2-((2-((6-chloropyridin-2-yl)amino)-2-oxoethyl)(2-hydroxyethyl)amino)-2-oxoethyl)-1H-indazole-3-carboxamide] | 1 to 10 µM
22 | NC(=O)c1nn(CC(=O)N(CC(=O)NCc2cccc(Cl)n2)C2CC2)c2ccccc12 [Example 107, 1-(2-((2-(((6-chloropyridin-2-yl)methyl)amino)-2-oxoethyl)(cyclopropyl)amino)-2-oxoethyl)-1H-indazole-3-carboxamide] | 1 to 10 µM
23 | CC(c1ccccc1)N(CC(=O)NCc1cccc(Cl)c1F)C(=O)Cn1nc(C(N)=O)c2ccccc21 (centres unmarked) [Example 65, 1-(2-((2-((3-chloro-2-fluorobenzyl)amino)-2-oxoethyl)(1-phenylethyl)amino)-2-oxoethyl)-1H-indazole-3-carboxamide] | 0.1 to 1 µM
24 | NC(=O)c1nn(CC(=O)N(CC(=O)NCc2cccc(Cl)c2F)Cc2ccncc2)c2ccccc12 [Example 32, 1-(2-((2-((3-chloro-2-fluorobenzyl)amino)-2-oxoethyl)(pyridin-4-ylmethyl)amino)-2-oxoethyl)-1H-indazole-3-carboxamide] | 1 to 10 µM
25 | CC(=O)c1nc(NC(=O)N(CC(=O)NCc2cccc(Cl)c2F)C2CC2)c2ccccn12 [Example 141, 2-(3-(3-acetylimidazo[1,5-a]pyridin-1-yl)-1-cyclopropylureido)-N-(3-chloro-2-fluorobenzyl)acetamide] | 0.1 to 1 µM
26 | COc1c(Cl)cccc1CNC(=O)CN(C(=O)Cn1nc(C(N)=O)c2ccccc21)C1CC1 [Example 116, 1-(2-((2-((3-chloro-2-methoxybenzyl)amino)-2-oxoethyl)(cyclopropyl)amino)-2-oxoethyl)-1H-indazole-3-carboxamide] | 1 to 10 µM
27 | N#Cc1cc(Cl)cc(CNC(=O)CN(C(=O)Cn2nc(C(N)=O)c3ccccc32)C2CC2)c1 [Example 133, 1-(2-((2-((3-chloro-5-cyanobenzyl)amino)-2-oxoethyl)(cyclopropyl)amino)-2-oxoethyl)-1H-indazole-3-carboxamide] | 1 to 10 µM
28 | NC(=O)c1nn(CC(=O)N(CC(=O)Nc2cccc(Cl)n2)C2CCNCC2)c2ccccc12 [Example 17, 1-(2-((2-((6-chloropyridin-2-yl)amino)-2-oxoethyl)(piperidin-4-yl)amino)-2-oxoethyl)-1H-indazole-3-carboxamide] | 1 to 10 µM
29 | NC(=O)c1nn(CC(=O)N(CC(=O)NCc2cccc(Cl)c2F)C(CO)C2CC2)c2ccccc12 (centres unmarked) [Example 69, 1-(2-((2-((3-chloro-2-fluorobenzyl)amino)-2-oxoethyl)(1-cyclopropyl-2-hydroxyethyl)amino)-2-oxoethyl)-1H-indazole-3-carboxamide] | 1 to 10 µM
